{"source": "paper PMC9147192", "about": "“Small Molecule Arranged Thermal Proximity Coaggregation (smarTPCA)—A Novel Approach to Characterize Protein–Protein Interactions in Living Cells by Similar Isothermal Dose–Responses” (International Journal of Molecular Sciences, 2022)", "key": {"MAPKAPK3": {"target": "MAPKAPK3 (Homo sapiens, UniProt Q16644)", "sequence (Q16644 whole entry)": "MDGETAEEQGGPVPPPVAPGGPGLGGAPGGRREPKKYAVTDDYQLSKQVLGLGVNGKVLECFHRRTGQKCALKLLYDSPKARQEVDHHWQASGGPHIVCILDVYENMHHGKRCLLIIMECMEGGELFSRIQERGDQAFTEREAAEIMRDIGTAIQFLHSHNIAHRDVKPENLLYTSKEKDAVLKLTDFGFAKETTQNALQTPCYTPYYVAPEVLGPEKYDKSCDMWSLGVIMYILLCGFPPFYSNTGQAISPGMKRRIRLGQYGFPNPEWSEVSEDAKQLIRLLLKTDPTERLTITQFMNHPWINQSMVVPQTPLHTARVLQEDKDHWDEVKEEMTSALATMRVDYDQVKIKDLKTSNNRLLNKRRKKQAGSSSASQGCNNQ", "sequence (Q16539 2-360 partner limits assumed)": "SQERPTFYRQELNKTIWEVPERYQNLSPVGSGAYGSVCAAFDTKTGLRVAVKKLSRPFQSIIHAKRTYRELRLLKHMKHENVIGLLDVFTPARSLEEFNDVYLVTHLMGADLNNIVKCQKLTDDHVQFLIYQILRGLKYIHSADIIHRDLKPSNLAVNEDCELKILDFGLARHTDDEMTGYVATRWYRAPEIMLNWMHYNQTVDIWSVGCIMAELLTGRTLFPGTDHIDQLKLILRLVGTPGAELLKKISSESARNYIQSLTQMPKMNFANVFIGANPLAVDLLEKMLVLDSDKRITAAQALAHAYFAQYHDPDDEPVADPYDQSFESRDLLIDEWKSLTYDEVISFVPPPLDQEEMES", "assay": "TPP-CCR in living HL-60 cells", "conditions": "[…] °C, TMT-MS"}, "MRPS34": {"target": "MRPS34 (Homo sapiens, UniProt P82930)", "assay": "TPP-CCR in living HL-60 cells"}, "MAPKAPK2p": {"test_system": "MAPKAPK2p", "assay": "CETSA in living HL-60 cells, immunoblot", "format": "cell-based, Homo sapiens", "experimental": "First, we conducted CETSA experiments according to Jafari et al.. […] Subsequent SDS-PAGE and immunoblotting were performed according to optimized conditions allowing for parallel detection of MAPK14, MAPKAPK2, MAPKAPK3, and GSK-3α (Supplementary Figure S1).\nHL-60 cells (ATCC No. CCL-240) were expanded to about […] in 80 mL cell culture medium (RPMI-1640 supplemented with 10% (v/v) FBS, 1% (v/v) penicillin-streptomycin and 1% (v/v) L-glutamine solution) and divided into four aliquots (20 mL each, 25 million cells per flask). […] The same volume of DMSO was added to the remaining aliquot serving as the vehicle (DMSO) control. After incubation (1 h, 37 °C, 5% CO2, in cell culture CO2 incubator), the cell suspensions were transferred into 50 mL conical tubes, cell number and viability were determined, and after centrifugation (300 relative centrifugal force (rcf), 3 min, room temperature (r.t.)), the supernatants were completely removed and discarded. The cells were washed using 20 mL Dulbecco’s phosphate-buffered saline (PBS), respectively, by resuspension and centrifugation (300 rcf, 3 min, r.t.). After the complete removal of the supernatants, the cells were transferred into pre-weighed 2 mL Eppendorf tubes using 0.5 mL PBS (r.t.), respectively, for resuspending. After centrifugation (300 rcf, 3 min, r.t.) and removing as much as possible of the supernatants, the cell wet weights were determined.\nThe suspensions were shortly centrifuged (1 s or less) using a benchtop centrifuge that was equipped with an inset for PCR tubes to release trapped air and to achieve an even liquid level without pelleting the cells. The 100 µL cell suspensions were then temperature treated by a 7 min pre-incubation at r.t., a 3 min incubation at the following different temperatures in the PCR cycler (DNA Engine Tetrad 2, lid temperature 70 °C, gradient block 1: 36–55 °C, gradient block 2: 48–67 °C), and a 3 min post-incubation at r.t. in a metal heating block for uniform heat dissipation.\nThe cells were lysed by four freeze/thaw cycles consisting of thawing the samples (in a heat block set to 25 °C and shaking at 1250 rpm) accompanied by mixing them several times by inversion and then shock freezing them again in liquid nitrogen. […]\nFor each sample set comprising either ten temperature range samples or ten compound concentration range samples, the same volume of the cell extracts containing the fraction of soluble, non-denatured proteins was used for further analysis. This volume was determined using the two lowest temperature samples (36.5 and 41.2 °C) per temperature range sample set so that they contained an average of 5 µg total protein (e.g., 2.78 µL for all temperature range samples of a sample set whose two lowest temperature samples contain an average of 1.8 mg/mL protein). […]"}, "[1]": {"conditions": "living HL-60 cells, 20 µM inhibitor"}}, "data": [{"smiles": "Cn1c(NC[C@@H](N)Cc2ccccc2)nc(-c2ccncc2)c(-c2ccc3ccccc3c2)c1=O", "note": "[AMG-548]", "values": [{"measurement": "Hill slope (MAPKAPK3)", "setting": "MAPKAPK3", "result": 0.68}, {"measurement": "EC50", "setting": "MRPS34", "result": 60.3, "unit": "nM"}, {"measurement": "Hill slope (MRPS34)", "setting": "MRPS34; living HL-60 cells, […] °C, TMT-MS", "result": 0.26}]}, {"smiles": "Cc1cnc(Nc2ccc(F)cc2Cl)nc1-c1c[nH]c(C(=O)N[C@H](CO)c2cccc(Cl)c2)c1", "note": "[ERK 11e]", "values": [{"measurement": "Tm", "setting": "MAPKAPK2p; MAPKAPK2p, living cells", "result": 47.18, "unit": "°C"}, {"measurement": "ΔTm to DMSO", "setting": "MAPKAPK2p; MAPKAPK2p, living cells", "result": -1.07, "unit": "°C"}, {"measurement": "Tm (MAPKAPK2p)", "setting": "MAPKAPK2p; [1]", "result": 47.18, "unit": "°C"}, {"measurement": "ΔTm to DMSO (MAPKAPK2p)", "setting": "MAPKAPK2p; [1]", "result": "−1.07", "unit": "°C"}]}]}
